This note sets out measurements from PubChem BioAssay AID179 (DTP/NCI, 2004).

Activity calls are given as the source filed them.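 How the source made its calls: active means compounds giving half or more protection of infected cells from virus-caused growth loss, again on retest; inactive means the rest.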 Where a SMILES comes first, the peptide text is derived from it. The star is where a group is joined. Cbz = O=C(OCc1ccccc1)*

The subject of the experiment is CEM cells HIV-1 protection, formazan growth assay. Briefly: NCI AIDS Antiviral Assay. As to conditions: for IC50: measured here: growth of uninfected CEM cells. The method, boiled down: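 Human CEM cells, uninfected and HIV-1-infected, received five drug concentrations, and growth was read by soluble formazan assay. Compounds giving at least 50% protection were retested; reproducible 100% protection defined confirmed active.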

By EC50 is commonly meant the concentration that produces a half-maximal response. Broadly, the IC50 is the concentration that inhibits the measured activity by half. A higher IC50 goes with weaker potency. In the case of `O/N=C(/Cc1ccccc1)CC(O)(C(F)(F)F)C(F)(F)F`, the EC50 is > 200 µM and the IC50 worked out at 70.8 µM. Consider `CC(C)(C)C1CCC(C[Se]c2ccc(Cl)cc2)([N+](=O)[O-])CC1` (configuration not stated), for which the result was inactive. Same read-out and setting: the same measure for `CC(C)=NNC(=S)NC12CC3CC(CC(C3)C1)C2`: “inactive”. For `O=C1CCN(CCC(F)(F)C(F)(F)C(F)(F)C(F)(F)F)C(=S)N1`, the EC50 is > 26.3 µM and the IC50 was > 26.3 µM. Take `Cc1cc2c(cc1C)n1c(N(C)C)[n+]3ccccc3c1c1c3cccc[n+]3c(N(C)C)n21`: the EC50 was > 151 µM and the IC50 worked out at 21.9 µM.

Take `O=C(NCCCCCCCCNC(=O)c1cnc2ccccc2n1)c1cnc2ccccc2n1`: the EC50 is > 398 µM and the IC50 is 56.2 µM.

Regarding `CCC1C(C(=O)Nc2ccccc2C)=C(C)NC(C)=C1c1ccccc1C` (configuration not stated), the EC50 is > 186 µM and the IC50 is > 186 µM. As to `O=C1NC(N2CCCC(CO)C2)=N/C1=C\c1ccccc1` (configuration not stated), the EC50 is > 200 µM and the IC50 is > 200 µM.

In the case of `CC(C)(C)[Si](C)(C)OCC1OC(n2ccc(=O)[nH]c2=O)C(O[Si](C)(C)C(C)(C)C)/C1=C/CO` (configuration not stated), the EC50 was > 200 µM and the IC50 came to 8.32 µM. The matching figures for `CSCCC(NC(=O)OCc1ccccc1)P(=O)(O)c1ccccc1` (configuration not stated): > 200 µM and > 200 µM. The matching figures for `COP(=O)(OC)C(=NCc1ccccc1)NNc1ccc([N+](=O)[O-])cc1`: > 200 µM and 191 µM.

With `COc1cc(OC)c2c(=O)c(OC)c(-c3ccc4c(c3)OCO4)oc2c1`, the EC50 is > 200 µM and the IC50 is > 200 µM. Take `c1ncn(C23C4C5C6C4C2C6C53)n1` (configuration not stated): the EC50 is > 200 µM and the IC50 was > 200 µM.

`COc1cc(CNc2cnc3cc(N)ccc3n2)cc(OC)c1OC`: the EC50 is > 200 µM and the IC50 is 6.46 µM. For `CCCCCCOC(=O)c1ccc(NC(=O)CN(CC)CC)cc1` the same measures were > 200 µM and 37.2 µM.

On to `CCCCOP(=O)(OCCCC)/C(C#N)=C/c1ccco1`, for which the EC50 is > 219 µM and the IC50 was 178 µM.

Consider `NCCS(=O)(=O)O`, for which the EC50 is > 200 µM and the IC50 was > 200 µM. Take `COc1ccccc1/C=C1\N=C(c2ccccc2)OC1=O`: the EC50 was > 200 µM and the IC50 was determined as 17.4 µM. Turning to `O=c1oc2ccccc2c2c1SC(c1ccncc1)C2` (configuration not stated), the EC50 is > 200 µM and the IC50 was > 200 µM. `CCOc1ccc2c(ccc(/C=C\c3cc(C)c4cccnc4c3O)[n+]2C)c1`: the EC50 is > 52.5 µM and the IC50 came out at 0.955 µM. Regarding `Cc1nc2ccccc2c(=O)n1Cc1nc2ccccc2[nH]1`, the outcome was inactive.

As for `CC(O)(/C=C/c1ccccc1)P(=O)(O)c1ccccc1` (configuration not stated), the EC50 was > 200 µM and the IC50 is > 200 µM. Take `COc1cc(C=O)c(-c2c(C=O)ccc3c2OCO3)c(OC)c1OC`: the EC50 was > 135 µM and the IC50 was found to be 20 µM. As to `C/C(=N\NC(=O)CC(=O)Nc1ccccc1Cl)c1cc2cc(N=Nc3ccccc3Cl)ccc2oc1=O`, the EC50 is > 18.6 µM and the IC50 was > 18.6 µM. As to `CCCCCCCCOC1C(O)C(O)C(O)C(O)C12CO2` (configuration not stated), the EC50 was > 200 µM and the IC50 was found to be 75.9 µM. For `C=CC1=C(C)C(/C=c2\[nH]/c(=C/c3[nH]c(CC4NC(=O)C(C)/C4=C\C)c(C)c3CCC(=O)O)c(CC(=O)O)c2C)=NC1=O` (configuration not stated) the same measures were > 2690 µM and > 2690 µM.

On to `CC(=O)/C(=C/c1ccccc1Cl)C(=O)c1ccccc1`, for which the EC50 was > 91.2 µM and the IC50 is 19.1 µM. With `COc1ccc(N=C(C)C(C)=Nc2ccc(OC)cc2)cc1`, the result was inactive.

Turning to `CC(C)N(C(=O)C12C3C4C5C3C1(C(=O)O)C5C42)C(C)C` (configuration not stated), the EC50 is > 661 µM and the IC50 was > 661 µM. Turning to `COc1cc(OC)c2c(=O)c3ccccc3n3c(C(C)O)cc1c23` (configuration not stated), the EC50 is > 200 µM and the IC50 was determined as 4.79 µM. Turning to `O=C(CSc1nnc(-c2ccc(N=Cc3ccc(Cl)cc3)cc2)o1)Nc1ccc(Cl)cc1Cl`, the EC50 was > 34.7 µM and the IC50 turned out to be 25.1 µM. For `C=C1C2CCC3C(CCC4C5(C)CCCC43C3OCCN3C5)(C2)C1OC(C)=O` (configuration not stated), the outcome was inactive. On the same count and under the same terms, the result for `CC[C@@H]1CC[C@@H]2[C@H](CC[C@]3(C)[C@@H](O[N+](=O)[O-])CC[C@@H]23)[C@H]1C(C)=O` reads “inactive”. On to `Cc1ccc(N=N/C(=N/NC(=O)c2ccccc2)c2ccc(N(CCC#N)CCC#N)cc2C)cc1`, for which the EC50 was > 200 µM and the IC50 stood at 14.8 µM. For `S=c1n(-c2ccc(Cl)cc2)c2nc3ccccc3nc(/c2=N\Nc2cc(Cl)ccc2Cl)n1-c1ccccn1` the same measures were > 200 µM and 18.2 µM.

As to `CCOC(=O)C(CC#Cc1ccc(C#CCC(NC(C)=O)C(=O)OCC)cc1)NC(C)=O` (configuration not stated), the EC50 is > 200 µM and the IC50 was > 200 µM. Consider `Cc1nn2c(=O)c3c([N+](=O)[O-])c(C)nn3c(=O)c2c1[N+](=O)[O-]`, for which the EC50 is > 562 µM and the IC50 is > 562 µM. Take `CC1=Nc2cc(N)nn2C(=O)C1`: the EC50 is > 200 µM and the IC50 is > 200 µM. Consider `O=C(Cn1c2c(c3ccccc31)CCCC2)N1CCOCC1`, for which the EC50 was > 200 µM and the IC50 is > 200 µM. Consider `COc1cc(CC2COC(=O)[C@@H]2Cc2ccc(O)c(OC)c2)ccc1O` (some centres not stated), for which the EC50 was > 200 µM and the IC50 came to 95.5 µM. As to `CN1N=CSC12C(=O)N(c1ccc(Cl)cc1)C(=O)N2c1ccc(Cl)cc1` (configuration not stated), the result was inactive. As for `CC1(C)c2ccccc2-c2nc3ccccc3cc2C1N1CCOCC1` (configuration not stated), the EC50 is > 200 µM and the IC50 amounted to 41.7 µM. For `CS(=O)(=O)NNS(=O)(=O)c1ccc(Br)cc1` the same measures were > 398 µM and > 398 µM. `O=C(O)c1ccc(Sc2ccccc2)cc1`: the EC50 was > 200 µM and the IC50 was > 200 µM.

With `O=C1NC2C(=O)N(Cc3ccccc3)C(=O)C2N1` (configuration not stated), the EC50 was > 29.5 µM and the IC50 was > 29.5 µM. With `CNc1ccccc1S(=O)(=O)c1cc(Cl)ccc1OC`, the EC50 is 151 µM and the IC50 is > 200 µM. The matching figures for `C=C(C)COC(=O)C1C2CC(C3OC23)C1C(=O)OCC(=C)C` (configuration not stated): > 200 µM and 112 µM.

Take `N/N=C(/CC(O)(C(F)(F)F)C(F)(F)F)c1ccccc1`: the EC50 is > 200 µM and the IC50 amounted to 112 µM.

On to `CC(=O)OC12CC[N+]3(C)CCCCC3C1=Nc1ccccc12` (configuration not stated), for which the EC50 is > 589 µM and the IC50 worked out at 479 µM. The matching figures for `Nc1c(N2CCCCC2)c(=O)nc2[nH]/c(=C\c3ccco3)c(=O)n12`: > 200 µM and 158 µM. For `Cc1cc(Cl)nc(Nc2nc3ccccc3[nH]2)n1` the same measures were > 200 µM and > 200 µM. `C/C(=C\c1ccccc1)C(O)C(=O)c1nc2ccc([N+](=O)[O-])cc2[nH]c1=O` (configuration not stated): the outcome was inactive.

As for `C[C@]12CC[C@H](O)CC1=CC[C@@H]1C2CC[C@]2(C)Nc3c(cnn3-c3ccccc3)CC12` (some centres not stated), the outcome was inactive. As for `CN(C)c1ccc(/C=C(\NC(=O)c2ccccc2)C(=O)Nc2ccccc2C(=O)NCc2ccccc2)cc1`, the EC50 is > 151 µM and the IC50 was 70.8 µM. In the case of `CC1=NN(C(=O)c2ccccc2O)C(=O)/C1=C/c1ccccc1O`, the EC50 was > 30.9 µM and the IC50 was determined as 0.0617 µM. `CC(C)C(NC(=O)C1CCCN1C(=O)OCc1ccccc1)C(=O)O` (stereo not drawn) (Cbz-Pro-Val-OH; configuration not given here): the EC50 was > 724 µM and the IC50 is > 724 µM. Turning to `c1ccc(-c2nc3sc(-c4ccccn4)nc3s2)nc1`, the result was inactive.

As for `O=C(NCCN(CCNC(=O)c1cccc(O)c1O)CCNC(=O)c1cccc(O)c1O)c1cccc(O)c1O`, the EC50 is > 200 µM and the IC50 was 3.39 µM. For `CC(=O)N(C(C)=O)c1nc2c(c(=O)n(C)c(=O)n2C)n1C` the same measures were > 200 µM and > 200 µM. The matching figures for `COc1cc(-c2cc(=O)c3c(C)cc(O)cc3o2)cc(OC)c1OC`: 112 µM and > 200 µM. For the compound `CCCCCCCCCCCCCCCCOCC(CP(=O)([O-])OCC[n+]1ccccc1)OC` (configuration not stated), the EC50 is > 5.01 µM and the IC50 was 2.51 µM. For `CC1(C)[C@@H]2CC[C@]13CC(=O)O[C@@H]3C2` the same measures were > 724 µM and > 724 µM.

`CCCC1C(C#N)(C#N)C1(C#N)C#N`: the EC50 was > 200 µM and the IC50 came out at 2.69 µM. As to `CC(C)(C)C1(c2ccc(C3(c4ccccc4)Oc4ccccc4S3)[nH]2)Oc2ccccc2S1` (configuration not stated), the result was inactive. Still for that read-out and setting: the same measure for `Cc1ccc(NC(=O)C(=O)C(C2C(C)CC(=O)C2CC(=O)O)[N+](=O)[O-])cc1` (configuration not stated): “inactive”; for `CCOC(=O)c1oc2c(OC)ccc3c2c1CCC3`: “inactive”. With `O=C(O)c1ccccc1C(=O)CCC(=O)c1ccccc1C(=O)O`, the EC50 was > 200 µM and the IC50 was > 200 µM.

`O=C(/C=C\c1ccsc1)c1ccccc1`: the EC50 is > 200 µM and the IC50 turned out to be 3.24 µM. The matching figures for `Cc1ccc(C(=O)Nc2ccc(CP(=O)(O)O)cc2CP(=O)(O)O)cc1NC(=O)c1cccc(NC(=O)Nc2cccc(C(=O)Nc3cc(C(=O)Nc4ccc(CP(=O)(O)O)cc4CP(=O)(O)O)ccc3C)c2)c1`: > 100 µM and > 100 µM. Take `C=CCOc1ccc(C2C(C(=O)OC)C(=O)CC(O)(c3ccccc3)C2C(=O)OC)cc1OC` (configuration not stated): the EC50 is > 100 µM and the IC50 was > 100 µM.

In the case of `CC1(C)Oc2cc(OCc3ccccc3)ccc2C2Oc3cc(OCc4ccccc4)c(O)cc3C21` (configuration not stated), the EC50 was > 200 µM and the IC50 came to 79.4 µM. In the case of `CC1(C)Cc2nnsc2C2=C1C(=O)CCS2`, the result was inactive. For `CCOC(=O)/C(=C/c1ccco1)P(=O)(OCC)OCC`, the EC50 was > 832 µM and the IC50 came out at 490 µM.
